Data from ChEMBL document CHEMBL5505958, “Optimization of sequence and chiral content enhances therapeutic potential of tilapia piscidin peptides” (Eur J Med Chem, 2024).
Values after ≈ are worked out from the molar mass of the structure shown.

Experiments:
Klebsiella pneumoniae [1] = test: Antibacterial activity against Klebsiella pneumoniae BAA 2473 assessed as inhibition of bacterial growth in presence of 1 microg/ml of trypsin (reference value: 1.56 to 3.13 microM); format: functional
Pseudomonas aeruginosa [2] = test: Antibacterial activity against Pseudomonas aeruginosa 19660 assessed as inhibition of bacterial growth incubated for 16 to 20 hrs; format: functional; conditions: time 16-20 hrs
Klebsiella oxytoca [3] = test: Antibacterial activity against Klebsiella oxytoca 13985 assessed as inhibition of bacterial growth incubated for 16 to 20 hrs in presence of human serum; format: functional; conditions: time 16-20 hrs
Klebsiella pneumoniae [4] = test: Bactericidal activity against Klebsiella pneumoniae BAA 2473 assessed as inhibition of bacterial growth in presence of 0.1 microg/ml of chymotrypsin (reference value: 1.56 to 3.13 microM); format: functional
Enterococcus faecium [5] = test: Bactericidal activity against Enterococcus faecium 10067 assessed as inhibition of bacterial growth incubated for 16 to 20 hrs; format: functional; conditions: time 16-20 hrs
Klebsiella pneumoniae [6] = test: Bactericidal activity against Klebsiella pneumoniae BAA 2473 assessed as inhibition of bacterial growth in presence of 0.1 microg/ml of pepsin (reference value: 1.56 to 3.13 microM); format: functional
Acinetobacter baumannii [7] = test: Antibacterial activity against Acinetobacter baumannii 10591 assessed as inhibition of bacterial growth incubated for 16 to 20 hrs in presence of human serum; format: functional; conditions: time 16-20 hrs
[8] = system: Staphylococcus haemolyticus; test: Bactericidal activity against Staphylococcus haemolyticus 15237 assessed as inhibition of bacterial growth incubated for 16 to 20 hrs; format: functional; conditions: time 16-20 hrs
[9] = system: Staphylococcus haemolyticus; test: Antibacterial activity against Staphylococcus haemolyticus 15237 assessed as inhibition of bacterial growth incubated for 16 to 20 hrs; format: functional; conditions: time 16-20 hrs
Klebsiella pneumoniae [10] = test: Antibacterial activity against Klebsiella pneumoniae BAA 2473 assessed as inhibition of bacterial growth in presence of 10 microg/ml of chymotrypsin (reference value: 1.56 to 3.13 microM); format: functional
Klebsiella oxytoca [11] = test: Bactericidal activity against Klebsiella oxytoca 13985 assessed as inhibition of bacterial growth incubated for 16 to 20 hrs in presence of human serum; format: functional; conditions: time 16-20 hrs
Klebsiella pneumoniae [12] = test: Antibacterial activity against Klebsiella pneumoniae BAA 2473 assessed as inhibition of bacterial growth in presence of 0.1 microg/ml of pepsin (reference value: 1.56 to 3.13 microM); format: functional
Acinetobacter baumannii [13] = test: Bactericidal activity against Acinetobacter baumannii 10591 assessed as inhibition of bacterial growth incubated for 16 to 20 hrs in presence of human serum; format: functional; conditions: time 16-20 hrs
Klebsiella pneumoniae [14] = test: Antibacterial activity against Klebsiella pneumoniae BAA 2473 assessed as inhibition of bacterial growth in presence of 0.1 microg/ml of proteinase K (reference value: 1.56 to 3.13 microM); format: functional
Salmonella typhimurium [15] = test: Bactericidal activity against Salmonella typhimurium DT104 assessed as inhibition of bacterial growth incubated for 16 to 20 hrs in presence of human serum; format: functional, Salmonella enterica subsp. enterica serovar Typhimurium; conditions: Salmonella enterica, time 16-20 hrs
Yersinia enterocolitica [16] = test: Bactericidal activity against Yersinia enterocolitica 13999 assessed as inhibition of bacterial growth incubated for 16 to 20 hrs; format: functional; conditions: time 16-20 hrs
Klebsiella pneumoniae [17] = test: Antibacterial activity against Klebsiella pneumoniae BAA 2473 assessed as inhibition of bacterial growth in presence of 10 microg/ml of proteinase K (reference value: 1.56 to 3.13 microM); format: functional
Klebsiella pneumoniae [18] = test: Bactericidal activity against Klebsiella pneumoniae TL 297 assessed as inhibition of bacterial growth incubated for 16 to 20 hrs in presence of human serum; format: functional; conditions: time 16-20 hrs
Salmonella enterica [19] = test: Antibacterial activity against Salmonella enterica 15455 assessed as inhibition of bacterial growth incubated for 16 to 20 hrs in presence of human serum; format: functional; conditions: time 16-20 hrs
Klebsiella pneumoniae [20] = test: Bactericidal activity against Klebsiella pneumoniae TL 297 assessed as inhibition of bacterial growth incubated for 16 to 20 hrs; format: functional; conditions: time 16-20 hrs
Klebsiella pneumoniae [21] = test: Antibacterial activity against Klebsiella pneumoniae BAA 2473 assessed as inhibition of bacterial growth in presence of 10 microg/ml of pepsin (reference value: 1.56 to 3.13 microM); format: functional
Staphylococcus aureus [22] = test: Antibacterial activity against Staphylococcus aureus 10780 assessed as inhibition of bacterial growth incubated for 16 to 20 hrs; format: functional; conditions: time 16-20 hrs
Klebsiella pneumoniae [23] = test: Bactericidal activity against Klebsiella pneumoniae BAA 2473 assessed as inhibition of bacterial growth in presence of 1 microg/ml of trypsin (reference value: 1.56 to 3.13 microM); format: functional
Enterococcus faecalis = test: Antibacterial activity against Enterococcus faecalis 10066 assessed as inhibition of bacterial growth incubated for 16 to 20 hrs; format: functional; conditions: time 16-20 hrs
Vibrio vulnificus = test: Antibacterial activity against Vibrio vulnificus 204 assessed as inhibition of bacterial growth incubated for 16 to 20 hrs in presence of human serum; format: functional; conditions: time 16-20 hrs
Klebsiella pneumoniae [24] = test: Bactericidal activity against Klebsiella pneumoniae BAA 2473 assessed as inhibition of bacterial growth in presence of 1 microg/ml of proteinase K (reference value: 1.56 to 3.13 microM); format: functional
Klebsiella pneumoniae [25] = test: Bactericidal activity against Klebsiella pneumoniae BAA 2473 assessed as inhibition of bacterial growth in presence of 0.1 microg/ml of proteinase K (reference value: 1.56 to 3.13 microM); format: functional
Enterococcus faecium [26] = test: Antibacterial activity against Enterococcus faecium 10067 assessed as inhibition of bacterial growth incubated for 16 to 20 hrs; format: functional; conditions: time 16-20 hrs
Yersinia enterocolitica [27] = test: Antibacterial activity against Yersinia enterocolitica 13999 assessed as inhibition of bacterial growth incubated for 16 to 20 hrs; format: functional; conditions: time 16-20 hrs
Klebsiella pneumoniae [28] = test: Antibacterial activity against Klebsiella pneumoniae BAA 2473 assessed as ciprofloxacin MIC; format: functional
Salmonella typhimurium [29] = test: Antibacterial activity against Salmonella typhimurium DT104 assessed as inhibition of bacterial growth incubated for 16 to 20 hrs in presence of human serum; format: functional, Salmonella enterica subsp. enterica serovar Typhimurium; conditions: Salmonella enterica, time 16-20 hrs
Salmonella typhimurium [30] = test: Bactericidal activity against Salmonella typhimurium DT104 assessed as inhibition of bacterial growth incubated for 16 to 20 hrs; format: functional, Salmonella enterica subsp. enterica serovar Typhimurium; conditions: Salmonella enterica, time 16-20 hrs
Klebsiella pneumoniae [31] = test: Bactericidal activity against Klebsiella pneumoniae BAA 2473 assessed as inhibition of bacterial growth in presence of 10 microg/ml of pepsin (reference value: 1.56 to 3.13 microM); format: functional
Staphylococcus aureus [32] = test: Bactericidal activity against Staphylococcus aureus 10780 assessed as inhibition of bacterial growth incubated for 16 to 20 hrs in presence of human serum; format: functional; conditions: time 16-20 hrs
Klebsiella pneumoniae [33] = test: Bactericidal activity against Klebsiella pneumoniae BAA 2473 assessed as inhibition of bacterial growth in presence of 1 microg/ml of pepsin (reference value: 1.56 to 3.13 microM); format: functional
Salmonella enterica [34] = test: Bactericidal activity against Salmonella enterica 15455 assessed as inhibition of bacterial growth incubated for 16 to 20 hrs; format: functional; conditions: time 16-20 hrs
Klebsiella oxytoca [35] = test: Bactericidal activity against Klebsiella oxytoca 13985 assessed as inhibition of bacterial growth incubated for 16 to 20 hrs; format: functional; conditions: time 16-20 hrs
Pseudomonas aeruginosa [36] = test: Bactericidal activity against Pseudomonas aeruginosa 19660 assessed as inhibition of bacterial growth incubated for 16 to 20 hrs in presence of human serum; format: functional; conditions: time 16-20 hrs
Rhizopus arrhizus = test: Fungicidal activity against Rhizopus oryzae 34550 assessed as inhibition of fungal growth incubated for 72 hrs; format: functional
Klebsiella pneumoniae [37] = test: Bactericidal activity against Klebsiella pneumoniae BAA 2473 assessed as inhibition of bacterial growth in presence of 10 microg/ml of proteinase K (reference value: 1.56 to 3.13 microM); format: functional

With CC(C)C[C@H](NC(=O)[C@@H](C)NC(=O)[C@@H](CCCCN)NC(=O)[C@H](CC(C)C)NC(=O)[C@@H](CC(C)C)NC(=O)[C@@H](CCCCN)NC(=O)[C@H](CCCCN)NC(=O)[C@@H](CC(C)C)NC(=O)[C@H](N)Cc1ccccc1)C(=O)N[C@H](Cc1ccccc1)C(=O)N[C@H](CO)C(=O)N[C@@H](C)C(=O)N1CCC[C@@H]1C(=O)N[C@H](CCCCN)C(=O)N[C@@H](C)C(=O)N[C@H](CC(C)C)C(=O)N[C@H](CCCCN)C(=O)N[C@@H](CCCNC(=N)N)C(=O)N[C@H](CC(C)C)C(=O)N[C@H](CC(C)C)C(=O)N[C@@H](CCCNC(=N)N)C(=O)N[C@H](CCCNC(=N)N)C(=O)N[C@H](CCCNC(=N)N)C(=O)N[C@@H](CCCNC(=N)N)C(=O)N[C@@H](CCCNC(=N)N)C(=O)O the MIC (Klebsiella pneumoniae [1]) was 0.78 µM, the MIC (Pseudomonas aeruginosa [2]) was 3.13 µM (≈ 9.64 µg/mL) and the MIC (Klebsiella oxytoca [3]) was 6.25 µM. It also gave an MBC (Klebsiella pneumoniae [4]) of 0.78 µM, an MBC (Enterococcus faecium [5]) of 12.5 µM (≈ 38.5 µg/mL) and an MBC (Klebsiella pneumoniae [6]) of 1.56 µM. It also gave an MIC (Acinetobacter baumannii [7]) of 1.56 µM, an MBC [8] of 1.56 µM (≈ 4.8 µg/mL) and an MIC [9] of 1.56 µM (≈ 4.8 µg/mL). For the same molecule, the MIC (Klebsiella pneumoniae [10]) was 0.78 µM, the MBC (Klebsiella oxytoca [11]) was 6.25 µM and the MIC (Klebsiella pneumoniae [12]) was 0.78 µM. It also gave an MBC (Acinetobacter baumannii [13]) of 3.13 µM, an MIC (Klebsiella pneumoniae [14]) of 0.78 µM and an MBC (Salmonella typhimurium [15]) of 6.25 µM. It also gave an MBC (Yersinia enterocolitica [16]) of 3.13 µM (≈ 9.64 µg/mL), an MIC (Klebsiella pneumoniae [17]) of 0.78 µM and an MBC (Klebsiella pneumoniae [18]) of 1.56 µM. For the same molecule, the MIC (Salmonella enterica [19]) was 0.78 µM, the MBC (Klebsiella pneumoniae [20]) was 6.25 µM (≈ 19.2 µg/mL) and the MIC (Klebsiella pneumoniae [21]) was 0.78 µM. It also gave an MIC (Staphylococcus aureus [22]) of 12.5 µM (≈ 38.5 µg/mL), an MBC (Klebsiella pneumoniae [23]) of 1.56 µM and an MIC (Enterococcus faecalis) greater than 25 µM. It also gave an MIC (Vibrio vulnificus) of 12.5 µM, an MBC (Klebsiella pneumoniae [24]) of 0.78 µM and an MBC (Klebsiella pneumoniae [25]) of 1.56 µM. It also gave an MIC (Enterococcus faecium [26]) of 3.13 µM (≈ 9.64 µg/mL), an MIC (Yersinia enterocolitica [27]) of 3.13 µM (≈ 9.64 µg/mL) and an MIC (Klebsiella pneumoniae [28]) of 50 µM. It also gave an MIC (Salmonella typhimurium [29]) of 6.25 µM, an MBC (Salmonella typhimurium [30]) of 3.13 µM (≈ 9.64 µg/mL) and an MBC (Klebsiella pneumoniae [31]) of 1.56 µM. It also gave an MBC (Staphylococcus aureus [32]) greater than 100 µM, an MBC (Klebsiella pneumoniae [33]) of 1.56 µM and an MBC (Salmonella enterica [34]) of 3.13 µM (≈ 9.64 µg/mL). The MBC (Klebsiella oxytoca [35]) was 3.13 µM (≈ 9.64 µg/mL), the MBC (Pseudomonas aeruginosa [36]) was 3.13 µM and the MFC (Rhizopus arrhizus) was 1.56 µM (≈ 4.8 µg/mL). The MBC (Klebsiella pneumoniae [37]) was 1.56 µM.

For H-FIHHIIGGLFSAGKAIHRLIRRRRR-OH, the MIC (Klebsiella pneumoniae [1]) was greater than 100 µM, the MIC (Klebsiella oxytoca [3]) was greater than 100 µM and the MBC (Klebsiella pneumoniae [4]) was 1.56 µM. It also gave an MBC (Enterococcus faecium [5]) of 0.78 µM, an MBC (Klebsiella pneumoniae [6]) of 3.13 µM and an MIC (Acinetobacter baumannii [7]) of 100 µM. It also gave an MBC [8] of 1.56 µM, an MIC [9] of 1.56 µM and an MIC (Klebsiella pneumoniae [10]) greater than 100 µM. It also gave an MBC (Klebsiella oxytoca [11]) greater than 100 µM, an MIC (Klebsiella pneumoniae [12]) of 1.56 µM and an MBC (Acinetobacter baumannii [13]) of 100 µM. It also gave an MIC (Klebsiella pneumoniae [14]) of 1.56 µM, an MBC (Salmonella typhimurium [15]) greater than 100 µM and an MBC (Yersinia enterocolitica [16]) of 3.13 µM. For the same molecule, the MIC (Klebsiella pneumoniae [17]) was greater than 100 µM, the MBC (Klebsiella pneumoniae [18]) was greater than 100 µM and the MIC (Salmonella enterica [19]) was 100 µM. It also gave an MIC (Klebsiella pneumoniae [21]) greater than 100 µM, an MIC (Staphylococcus aureus [22]) of 0.78 µM and an MBC (Klebsiella pneumoniae [23]) greater than 100 µM. For the same molecule, the MIC (Enterococcus faecalis) was 3.13 µM, the MIC (Vibrio vulnificus) was greater than 100 µM and the MBC (Klebsiella pneumoniae [24]) was greater than 100 µM. It also gave an MBC (Klebsiella pneumoniae [25]) of 1.56 µM, an MIC (Enterococcus faecium [26]) of 0.39 µM and an MIC (Yersinia enterocolitica [27]) of 3.13 µM. The MIC (Salmonella typhimurium [29]) was greater than 100 µM, the MBC (Salmonella typhimurium [30]) was 6.25 µM and the MBC (Klebsiella pneumoniae [31]) was greater than 100 µM. For the same molecule, the MBC (Staphylococcus aureus [32]) was 50 µM, the MBC (Klebsiella pneumoniae [33]) was greater than 100 µM and the MBC (Salmonella enterica [34]) was less than 1.56 µM. For the same molecule, the MBC (Pseudomonas aeruginosa [36]) was 100 µM, the MFC (Rhizopus arrhizus) was 1.56 µM and the MBC (Klebsiella pneumoniae [37]) was greater than 100 µM.
